Experimental data from patent US12551482B2, “Aurora kinase inhibitors” (The Regents of the University of California, priority 2013, dated 2026).
Entries after “also recorded” stand apart in the source; their conditions may differ.

How the values were obtained:
[1] = tested on: tumor-derived cell lines; assay: Screen of panel of tumor-derived, genetically characterized cell lines; assay type: cell-based; conditions: Wilcoxon Rank Sum test
[2] = tested on: MYCN amplified neuroblastoma cells; assay: Cell cycle by flow cytometry; assay type: cell-based
Experimental: (§1) Neuroblastoma cells were treated for the indicated time, trypsinized, washed, stained with Dylight 800 at 0.3 μg/mL (Pierce, 46421), fixed with 1.5% PFA, and permeabilized with 100% methanol. Cells were then stained with antibodies against p-MPM2 (Millipore, 16-155), p-pan-Aurora (Cell Signaling, 2914), MYCN (Thermo, PA5-17403), rabbit IgG (Invitrogen, A10542), or mouse IgG (BioLegend, 405307). Cells were stained with DAPI at 0.3 μg/mL (Invitrogen, D21490) and analyzed on the BD LSR II flow cytometer. For cell cycle analysis, cells were stimulated with EdU for 2 hours prior to harvest, then probed using the Click-iT EdU Flow Cytometry Assay Kit (Invitrogen, C10424). Cells were stained with propidium iodide (BD, 556547) and analyzed on the BD FACSCalibur flow cytometer. Data was gated using Cytobank. For viability studies, neuroblastoma cells were plated in 96-well plates at a density of 1,000 cells/well for SHEP or 4,000 cells/well for Kelly or SK—N-BE2 cells, then incubated with indicated concentrations of drug for 72 hours at 37° C. Plates were frozen at −80° C. to induce cell lysis. CyQUANT reagent mixture (Invitrogen, C7026) was added to thawed plates, then fluorescence was measured. Alternatively, resazurin (Sigma-Aldrich, R7017) was added directly to wells following drug treatment then incubated for 4 hours at 37° C. prior to measuring fluorescence. Data was analyzed using GraphPad Prism software.

[3] = tested on: p-Histone H3; assay: p-Histone H3 by immunoblot in compound-treated cells (structure-activity); assay type: cell-based
Experimental: (§2) Neuroblastoma tumor cell lines were obtained from the University of California San Francisco Cell Culture Facility (Kelly, SK-N-BE2, and SH-EP). SMS-KCN, SHEP MYCN^wt and MYCN^T58A/S62A cells were obtained. All cells were grown in RPMI with 10% FBS. Neuroblastoma cells were harvested and lysed with Cell Signaling Lysis buffer+1% SDS, sonicated and supernatants boiled in LDS sample buffer (Invitrogen). Western blots were performed as described previously (Chanthery et al., 2012), with primary antibodies to MYCN (ab24193, Abcam), Histone H3, P-Histone H3 (S10), Aurora A (Cell signaling), and GAPDH (Millipore). Western blot quantitation performed with ImageJ software.

[4] = tested on: MYCN; assay: MYCN protein by western blot in SK-N-BE(2) cells; assay type: cell-based; conditions: for efficacy against MYCN (loss of MYCN protein), in words: 24 hrs, 1 μM of compound (FIG. 3)
Experimental: as §2

[5] = molecular target: T1, Aurora A (Homo sapiens, UniProt O14965, T287D); assay: In vitro kinase assay for Aurora A (32P ATP); assay type: biochemical
T1 construct: Aurora A (residues 123-390, T287D) was cloned into a pET28a plasmid; hexahistidine (PreScission Protease-cleavable) (cleaved yes); made in house; host or cells: E. coli BL-21(DE3)
T1 sequence (O14965 123-390 T287D): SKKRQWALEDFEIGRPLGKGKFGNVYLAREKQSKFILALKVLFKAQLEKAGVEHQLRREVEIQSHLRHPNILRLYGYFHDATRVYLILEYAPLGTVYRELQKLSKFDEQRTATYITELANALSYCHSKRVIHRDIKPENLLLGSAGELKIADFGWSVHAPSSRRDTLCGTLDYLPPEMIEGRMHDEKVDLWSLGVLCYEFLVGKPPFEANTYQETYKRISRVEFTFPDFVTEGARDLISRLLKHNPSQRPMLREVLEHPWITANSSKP
Experimental: Kinase assays for Aurora A were performed in 10 mM HEPES pH 7.5, 10 mM MgCl2, 0.01% Triton, 4% v/v DMSO, 5 nM kinase, and either 4 μM histone H3 or 30 μM synthetic peptide [sequence] (Elim Biopharmaceuticals, Inc). Drug concentration ranged from 2000-5 nM. Reactions were preincubated with inhibitor for ten minutes before initiation by addition of 100 μM nonradioactive ATP supplemented with ^32P ATP (1 mCi in 200 μL, Perkin-Elmer, 0.8 ρCi per reaction). Reactions were quenched at 10 min by spotting 3 μL quantity onto P81 phosphocellulose (Whatman), which were washed 5×5′ in 0.1% phosphoric acid and dried. Radioactivity was measured by phosphorimaging and recorded on a Typhoon fluorescence imager (Molecular Dynamics).

[6] = tested on: MYCN; assay: MYCN levels in JM134- vs NHC532-treated cells (FIG. 10); assay type: cell-based
[7] = molecular target: T2, MYCN-Aurora A complex (Homo sapiens, UniProt O14965); assay: Pulldown of MYCN and immunoblot for Aurora A; assay type: cell-based; conditions: MYCN-amplified IMR32 cells, 4 hrs MG-132, 2 hrs drug, increasing concentrations
T2 construct: Representative immunoprecipitation of MYCN and immunoblots from MYCN-amplified IMR32 cells; endogenous in cells

[8] = molecular target: T3, Aurora A protein (Homo sapiens, UniProt O14965); assay: Dose response immunoblot for Aurora A protein in MYCN-amplified neuroblastoma cell lines; assay type: cell-based; conditions: across cell lines (FIGS. 1D and 7)
T3 construct: endogenous in cells; host or cells: SK-N-BE(2), SMS-KCN, Kelly neuroblastoma cells
Experimental: Neuroblastoma tumor cell lines were obtained from the University of California San Francisco Cell Culture Facility (Kelly, SK-N-BE2, and SH-EP). SMS-KCN, SHEP MYCN^wt and MYCN^T58A/S62A cells were obtained. All cells were grown in RPMI with 10% FBS. Neuroblastoma cells were harvested and lysed with Cell Signaling Lysis buffer+1% SDS, sonicated and supernatants boiled in LDS sample buffer (Invitrogen). […] Western blot quantitation performed with ImageJ software.

[9] = tested on: phospho-pan-Aurora; assay: Phospho-pan-Aurora by flow cytometry; assay type: cell-based; conditions: 1 μM, 6 hrs (FIG. 6C)
Experimental: as §1

[10] = delivered at the same dose (20 mg/kg); cited from earlier work
[11] = tested on: P-Histone H3 (S10); assay: Dose response immunoblot for phosphorylation of Histone H3 (S10) in MYCN-amplified neuroblastoma cell lines; assay type: cell-based; conditions: FIGS. 1D and 7
Experimental: as §2

[12] = tested on: Kelly MYCN-amplified neuroblastoma cells; assay: Viability at 72 hrs, CyQUANT assay; assay type: cell-based; conditions: FIG. 1F, read-out: cellular EC50 at 72 hrs
Experimental: as §1, with “Plates were frozen at −80° C. to induce cell lysis.” left out

[13] = tested on: MYCN; assay: Screen of Kelly MYCN-amplified cells, western blot for MYCN; assay type: cell-based; conditions: 1 μM, 24 hrs
Experimental: as §2
(§3) To test whether this panel of 32 putative conformation-disrupting Aurora A inhibitors would destabilize MYCN, initially Kelly MYCN-amplified neuroblastoma cells were treated with candidate inhibitors and MYCN protein was measured by western blot. Phosphorylation of Histone H3, a known substrate for Aurora A and B and a marker for mitosis, was also assessed. FIGS. 1B and 5 show decreased levels of both MYCN protein and p-Histone H3 in response to several members of the screening panel (quantitated in FIG. 1).

[14] = tested on: MYCN; assay: Dose response immunoblot for MYCN in MYCN-amplified neuroblastoma cell lines (SK-N-BE(2), SMS-KCN, Kelly); assay type: cell-based; conditions: multiple cell lines, 24 hrs (FIGS. 1D and 7)
Experimental: as §2

[15] = tested on: phospho-histone H3; assay: Screen of Kelly MYCN-amplified cells, western blot for phospho-histone H3; assay type: cell-based; conditions: 1 μM, 24 hrs
Experimental: as §2, §3

[16] = tested on: MYCN; assay: MYCN protein by immunoblot in SHEP cells expressing MYCN; assay type: cell-based; conditions: SHEP cells expressing MYCNWT, 24 hrs, increasing concentrations (FIG. 12C)
Experimental: as §2
MYCN is believed to be sequentially phosphorylated at S62/T58 before it is targeted for degradation by ubiquitination, and only phosphorylated, ubiquitinated MYCN is protected from degradation by Aurora A (Gustafson and Weiss, 2010; Otto et al., 2009).

T2 sequence (O14965 whole entry, one chain of several): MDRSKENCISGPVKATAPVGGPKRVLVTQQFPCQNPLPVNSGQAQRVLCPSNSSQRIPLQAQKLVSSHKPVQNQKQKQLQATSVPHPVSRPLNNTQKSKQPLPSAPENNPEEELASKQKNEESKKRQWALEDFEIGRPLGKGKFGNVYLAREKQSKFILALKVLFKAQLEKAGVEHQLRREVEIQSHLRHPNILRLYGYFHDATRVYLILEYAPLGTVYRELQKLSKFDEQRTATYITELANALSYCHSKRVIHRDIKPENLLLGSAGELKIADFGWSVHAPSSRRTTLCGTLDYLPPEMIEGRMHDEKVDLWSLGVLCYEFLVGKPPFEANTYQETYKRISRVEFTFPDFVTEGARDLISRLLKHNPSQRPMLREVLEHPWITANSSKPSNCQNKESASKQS
T3 sequence (O14965 whole entry): as the sequence (O14965 whole entry, one chain of several) above

In the case of `Cc1sc2c(c1C)C(c1ccc(Cl)cc1)=N[C@@H](CC(=O)OC(C)(C)C)c1nnc(C)n1-2` [JQ1, reference compound], the “susceptibility of MYCN amplified vs non-amplified cell lines” value [1] is reported as “significantly more susceptible to JQ1 than non-amplified lines” and the cell cycle effect ([2]; 24 hrs of treatment) is reported as “blockade of S-phase entry and accumulation of cells in G0/G1”.
In the case of `O=C(Nc1ccccc1)Nc1ccc(Nc2nccc(Nc3cc(C4CCCC4)[nH]n3)n2)cc1` [CD25, 3-[4-({4-[(5-cyclopentyl-1H-pyrazol-3-yl)amino]pyrimidin-2-yl}amino)phenyl]-1-phenylurea], the “Histone H3 phosphorylation” value ([3]; SK-N-BE(2) cells, 24 hrs, 1 μM (FIG. 3D)) is reported as “loss of Histone H3 phosphorylation”, the “efficacy against MYCN (loss of MYCN protein), in words” value [4] is reported as “less effective than CD532 in driving MYCN loss” and the “potency against Aurora A (biochemical, cell-free), in words” value [5] is reported as “retained potency against Aurora Kinase A activity”.
In the case of `Cc1cc(Nc2cc(C3CCCC3)[nH]n2)nc(Nc2ccc(NC(=O)Nc3cccc(C(F)(F)F)c3)cc2)n1` [CD15, 1-(4-((4-((5-cyclopentyl-1H-pyrazol-3-yl)amino)-6-methylpyrimidin-2-yl)amino)phenyl)-3-(3-(trifluoromethyl)phenyl)urea], the “efficacy against MYCN (loss of MYCN protein), in words” value [4] is reported as “maintained both cell-free potency and efficacy against MYCN” and the “potency against Aurora A (biochemical, cell-free), in words” value [5] is reported as “maintained both cell-free potency and efficacy against MYCN”.
In the case of `O=C(Nc1ccc(Nc2nccc(Nc3cc(-c4ccco4)[nH]n3)n2)cc1)Nc1cccc(C(F)(F)F)c1` [JM134, 1-(4-((4-((5-(furan-2-yl)-1H-pyrazol-3-yl)amino)pyrimidin-2-yl)amino)phenyl)-3-(3-(trifluoromethyl)phenyl)urea], the “MYCN levels compared to NHC532 (CD532)” value [6] is reported as “still decreases MYCN levels (though not as completely)”, the “level of p-Histone H3 compared to NHC532-treated cells” value ([3]; FIG. 10) is reported as “higher level of p-Histone H3” and the “increase in biochemical IC50 against Aurora A compared to NHC532 (CD532)” value [5] is reported as 5 fold. For the same compound, the “potency against Aurora A (biochemical, cell-free), in words” value [5] was “decreased binding affinity to Aurora A”.
With `COc1cc(Nc2ncc3c(n2)-c2ccc(Cl)cc2C(c2c(F)cccc2OC)=NC3)ccc1C(=O)O` [MLN8237] the “MYCN-Aurora A interaction” value [7] was “partial loss of interaction; also recorded: only modestly disrupted this interaction”, the “Aurora A protein level” value [8] was “upregulated or had little effect on Aurora A protein” and the phospho-pan-Aurora [9] was “loss of phospho-pan-Aurora”. The “time dependence of MYCN protein loss” value ([4]; 1 μM, time course (FIG. 12A)) was “similarly rapid, but much more modest decrease in levels of MYCN protein that does not change over time”, the AUC0-24 [10] was 78.4 µM·h and the cell cycle effect ([2]; 4 or 6 hrs of treatment) was “G2/M arrest”. For the same compound, the “phosphorylation of Histone H3 at S10, dose response” value [11] was “initial increase in S10 phosphorylation at lower concentrations, followed by a sharp drop at higher concentrations”, the EC50 [12] was 33.9 nM and the MYCN protein level [13] was “much more modest effects on levels of MYCN protein”. For the same compound, the “MYCN protein, dose response” value [14] was “little or no response to high concentrations; also recorded: little loss of MYCN protein even at doses 100 to 1000 times greater than their IC50 values for Aurora A” and the “p-Histone H3 level” value [15] was “blocked Histone H3 phosphorylation at 1 μM”.
For `Cc1cc(Nc2cc(C3CCCCC3)[nH]n2)nc(Nc2ccc(NC(=O)Nc3ccccc3)cc2)n1` [CD24, 3-[4-({4-[(5-cyclohexyl-1H-pyrazol-3-yl)amino]-6-methylpyrimidin-2-yl}amino)phenyl]-1-phenylurea], the “efficacy against MYCN (loss of MYCN protein), in words” value [4] was “lost both potency against Aurora A and efficacy against MYCN” and the “potency against Aurora A (biochemical, cell-free), in words” value [5] was “lost both potency against Aurora A and efficacy against MYCN”.
For `Cc1cc(Nc2cc(C3CCCCC3)[nH]n2)nc(Nc2ccc(NC(=O)Nc3cccc(C(F)(F)F)c3)cc2)n1` [CD22, 3-[4-({4-[(5-cyclohexyl-1H-pyrazol-3-yl)amino]-6-methylpyrimidin-2-yl}amino)phenyl]-1-[3-(trifluoromethyl)phenyl]urea], the “efficacy against MYCN (loss of MYCN protein), in words” value [4] was “lost both potency against Aurora A and efficacy against MYCN” and the “potency against Aurora A (biochemical, cell-free), in words” value [5] was “lost both potency against Aurora A and efficacy against MYCN”.
With `Cc1cc(Nc2cc(N3CCN(C)CC3)nc(Sc3ccc(NC(=O)C4CC4)cc3)n2)n[nH]1` [VX-680] the “wild-type MYCN protein” value [16] was “little effect on MYCN protein levels”, the phospho-pan-Aurora [9] was “loss of phospho-pan-Aurora” and the cell cycle effect ([2]; 4 or 6 hrs of treatment) was “G2/M arrest”. The “phosphorylation of Histone H3 at S10, dose response” value [11] was “abrogates phosphorylation of Histone H3 at S10”, the MYCN protein level [13] was “much more modest effects on levels of MYCN protein” and the “MYCN protein, dose response” value [14] was “little loss of MYCN protein even at doses 100 to 1000 times greater than their IC50 values for Aurora A”. For the same compound, the “p-Histone H3 level” value [15] was “blocked Histone H3 phosphorylation at 1 μM”.
